The assay concerns the target T1, P2X4 receptor (recombinant mouse P2X4 purinoceptor) (Mus musculus, UniProt Q9JJX6).
T1 construct: gene P2rx4; the complete extracellular domain, N-terminal His-6 tag, expressed in E. coli
T1 sequence (Q9JJX6 55-338): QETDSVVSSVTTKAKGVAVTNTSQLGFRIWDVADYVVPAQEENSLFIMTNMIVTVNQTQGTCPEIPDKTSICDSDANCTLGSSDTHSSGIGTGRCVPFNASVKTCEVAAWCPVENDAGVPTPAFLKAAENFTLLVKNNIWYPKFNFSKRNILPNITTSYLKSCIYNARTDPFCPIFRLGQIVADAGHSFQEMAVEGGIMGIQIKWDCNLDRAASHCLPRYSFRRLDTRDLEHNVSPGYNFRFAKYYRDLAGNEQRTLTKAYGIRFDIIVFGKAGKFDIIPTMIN
The experiment in a line: SPR (Biacore T200, P2X4 immobilized on CM5 chip). Type of assay: binding.

pKd: −log10 of the molar value. Where a name gives a salt, the structure may show the parent alone.

For `C=C(C)CCC[C@]1(C)OC(=O)[C@]23CCC4C(=CC[C@H]5C(C)(C)[C@@H](O[C@@H]6OC[C@@H](OS(=O)(=O)O)[C@H](O)[C@H]6O[C@@H]6O[C@H](C)[C@@H](O[C@@H]7O[C@H](CO)[C@@H](O)[C@H](O[C@@H]8O[C@H](CO)[C@@H](O)[C@H](OC)[C@H]8O)[C@H]7O)[C@H](O)[C@H]6O[C@@H]6OC[C@@H](O)[C@H](O)[C@H]6O)CC[C@]45C)[C@]2(C)CC(=O)[C@@H]31` (stereo partly drawn) [CA2-2, 3-O-{3-O-methyl-β-D-glucopyranosyl-(1→3)-β-D-glucopyranosyl-(1→4)-[β-D-xylopyranosyl-(1→2)]-β-D-quinovopyranosyl-(1→2)−4-O-sodium sulfate-β-D-xylopyranosyl}−16-keto-holosta-7,25-diene], the pKd is 4.34.

In general, pKd refers to the Kd on a negative log10 scale, so that one unit is a factor of ten.

The values above are taken from PMC5177912, “Glycosides from edible sea cucumbers stimulate macrophages via purinergic receptors” (Scientific Reports, 2016).
